Results published in patent US10239887B2, “Positive allosteric modulators of the muscarinic acetylcholine receptor M4” (Vanderbilt University, priority 2016, dated 2019).
In brackets after ≈: the same amount, converted by molar mass.

Legend:
[1] = target: cynomolgus monkey M4 (Macaca fascicularis, UniProt G7PQB4); assay: mAChR M4 cell-based functional assay (calcium flux), cyno M4; settings: CHO-K1 cells
[2] = tested on: bacterial; assay: bacterial cytotoxicity assay; type: cell-based; settings: 0.6-100 μM
[3] = solubility (aqueous, faSSIF, SGF); type: physicochemical
[4] = MDCK-MDR1 permeability and efflux; type: in vitro ADME; settings: dog, MDCK-MDR1
Method: (§1) Compound 76 was in several in vitro assays to investigate both metabolism and pharmacokinetics. These assays were performed according to known methods as generally described in the following references: Conde-Ceide et al. ACS Med. Chem. Lett. 2015, 6, 716-720; Morris et al. J. Med. Chem. 2014, 57, 10192-10197; and Bubser et al. ACS Chem. Neurosci. 2014, 5, 920-942.

[5] = tested on: MDCK-MDR1; assay: MDCK-MDR1 permeability and efflux; type: in vitro ADME; settings: efflux ratio
Method: as §1

[6] = fraction unbound in plasma, dog; type: in vitro ADME; settings: read-out: Dog Fu (plasma)
Method: as §1

[7] = fraction unbound in plasma, cyno; type: in vitro ADME; settings: cynomolgus monkey, read-out: Cyno Fu (plasma)
Method: as §1

[8] = intrinsic clearance, rat; type: in vitro ADME
Method: as §1

[9] = intrinsic clearance, dog; type: in vitro ADME
Method: as §1

[10] = intrinsic clearance, cyno; type: in vitro ADME; settings: cynomolgus monkey
Method: as §1

[11] = target: P450 2D6 (Homo sapiens, UniProt P10635); assay: P450 2D6 inhibition; type: in vitro ADME
Chain of P450 2D6 (P10635 whole entry): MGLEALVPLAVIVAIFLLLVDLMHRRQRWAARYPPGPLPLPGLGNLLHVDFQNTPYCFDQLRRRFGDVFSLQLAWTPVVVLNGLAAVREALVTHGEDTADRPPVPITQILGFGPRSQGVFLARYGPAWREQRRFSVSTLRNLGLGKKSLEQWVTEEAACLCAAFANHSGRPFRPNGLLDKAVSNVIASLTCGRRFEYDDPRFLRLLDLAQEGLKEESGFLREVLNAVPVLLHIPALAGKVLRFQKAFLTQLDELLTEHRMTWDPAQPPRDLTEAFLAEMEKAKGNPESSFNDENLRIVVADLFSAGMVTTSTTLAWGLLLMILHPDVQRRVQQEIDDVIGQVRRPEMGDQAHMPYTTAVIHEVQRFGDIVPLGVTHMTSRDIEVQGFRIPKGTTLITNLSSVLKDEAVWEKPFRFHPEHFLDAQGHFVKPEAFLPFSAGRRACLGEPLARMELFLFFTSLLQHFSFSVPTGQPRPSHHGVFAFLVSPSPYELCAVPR
Method: as §1

[12] = target: P450 2C9 (Homo sapiens, UniProt P11712); assay: P450 2C9 inhibition; type: in vitro ADME
Chain of P450 2C9 (P11712 whole entry): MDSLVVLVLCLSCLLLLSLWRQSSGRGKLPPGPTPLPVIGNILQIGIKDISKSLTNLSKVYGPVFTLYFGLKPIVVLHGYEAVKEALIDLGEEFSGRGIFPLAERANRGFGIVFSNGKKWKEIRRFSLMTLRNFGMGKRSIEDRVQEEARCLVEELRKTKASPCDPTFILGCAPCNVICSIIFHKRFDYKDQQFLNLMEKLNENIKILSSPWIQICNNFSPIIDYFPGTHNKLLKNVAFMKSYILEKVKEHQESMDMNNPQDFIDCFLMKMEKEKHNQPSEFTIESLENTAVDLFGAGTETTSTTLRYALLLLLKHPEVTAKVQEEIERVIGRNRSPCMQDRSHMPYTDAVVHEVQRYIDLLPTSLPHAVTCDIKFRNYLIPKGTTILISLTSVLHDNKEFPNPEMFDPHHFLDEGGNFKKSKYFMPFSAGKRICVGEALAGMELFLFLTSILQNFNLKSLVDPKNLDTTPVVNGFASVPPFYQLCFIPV
Method: as §1

[13] = target: T1, P450 1A2 (Homo sapiens, UniProt P05177); assay: P450 1A2 inhibition; type: in vitro ADME
T1 sequence (P05177 1-516): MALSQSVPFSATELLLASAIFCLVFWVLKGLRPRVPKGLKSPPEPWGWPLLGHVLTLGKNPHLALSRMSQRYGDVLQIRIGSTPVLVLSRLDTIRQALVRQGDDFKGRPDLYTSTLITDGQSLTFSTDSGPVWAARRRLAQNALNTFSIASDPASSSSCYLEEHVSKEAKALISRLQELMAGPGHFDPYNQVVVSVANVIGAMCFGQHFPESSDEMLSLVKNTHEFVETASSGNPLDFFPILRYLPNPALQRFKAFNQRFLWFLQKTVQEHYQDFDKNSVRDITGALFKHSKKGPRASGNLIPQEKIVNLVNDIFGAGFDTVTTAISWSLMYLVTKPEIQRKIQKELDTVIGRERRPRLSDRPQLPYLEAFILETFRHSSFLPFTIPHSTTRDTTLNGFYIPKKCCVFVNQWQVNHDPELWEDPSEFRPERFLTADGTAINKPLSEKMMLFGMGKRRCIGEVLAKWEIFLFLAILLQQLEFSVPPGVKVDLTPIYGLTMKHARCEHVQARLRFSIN
Method: as §1

[14] = in vivo DMPK, rat; settings: 3 mg/kg
[15] = in vivo DMPK, dog; settings: 3 mg/kg
[16] = tested on: four strains of Salmonella; assay: Eurofins Ames Test; settings: 5-100 μM
[17] = target: T2, rat mAChR M4 (Rattus norvegicus, UniProt P08485); assay: mAChR M4 cell-based functional assay (calcium flux), rat M4; design: Emax: dose or concentration left out as unconfirmed
T2 sequence (P08485 1-478): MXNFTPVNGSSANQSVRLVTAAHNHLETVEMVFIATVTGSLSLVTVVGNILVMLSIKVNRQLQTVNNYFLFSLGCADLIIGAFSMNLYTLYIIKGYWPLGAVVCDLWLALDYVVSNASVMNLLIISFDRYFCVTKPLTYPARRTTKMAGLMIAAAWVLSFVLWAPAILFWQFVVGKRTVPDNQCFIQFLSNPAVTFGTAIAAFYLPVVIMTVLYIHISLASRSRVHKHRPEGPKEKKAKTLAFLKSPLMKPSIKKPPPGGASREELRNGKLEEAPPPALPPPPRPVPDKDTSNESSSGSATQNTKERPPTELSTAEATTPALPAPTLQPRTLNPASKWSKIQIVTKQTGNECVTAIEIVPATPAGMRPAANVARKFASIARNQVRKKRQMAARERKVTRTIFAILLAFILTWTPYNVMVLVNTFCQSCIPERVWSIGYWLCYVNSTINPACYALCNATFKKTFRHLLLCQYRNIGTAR

Chain of cynomolgus monkey M4 (G7PQB4 1-479): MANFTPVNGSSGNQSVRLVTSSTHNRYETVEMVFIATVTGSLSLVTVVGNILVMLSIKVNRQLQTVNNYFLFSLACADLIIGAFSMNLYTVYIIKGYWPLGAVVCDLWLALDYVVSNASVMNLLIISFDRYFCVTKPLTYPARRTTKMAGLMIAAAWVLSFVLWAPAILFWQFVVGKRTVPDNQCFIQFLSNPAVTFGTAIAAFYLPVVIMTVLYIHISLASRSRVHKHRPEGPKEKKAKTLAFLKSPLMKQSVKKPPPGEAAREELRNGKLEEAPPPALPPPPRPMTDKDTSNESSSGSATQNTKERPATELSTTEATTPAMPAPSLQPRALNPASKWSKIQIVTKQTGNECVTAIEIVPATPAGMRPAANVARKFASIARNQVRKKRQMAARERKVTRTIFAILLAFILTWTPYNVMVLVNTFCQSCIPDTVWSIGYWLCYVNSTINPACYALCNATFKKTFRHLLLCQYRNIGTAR

Cc1nnc2sc3c(NCc4ccc(C(C)(C)O)cc4)ncnc3c2c1C [Compound 76, 2-[4-[[(3,4-Dimethylpyrimido[4′,5′:4,5]thieno[2,3-c]pyridazin-8-yl)amino]methyl]phenyl]propan-2-ol]
EC50 [1]: 0.12 µM | bacterial cytotoxicity result [2]: clean | solubility ([3]; aqueous medium (pH 7.4), pH 7.4, aqueous buffer): 166 µM (≈ 63 µg/mL) | SGF ([3]; solubility in SGF): 180 µM | faSSIF ([3]; solubility in faSSIF): 24 µM | Papp A→B [4]: 20 ×10⁻⁶ cm/s | MDCK-MDR1 ER [5]: 3.1 (Papp A→B: | fraction unbound [6]: 0.057 | fraction unbound [7]: 0.009 | CLint scaled [8]: 87 mL/min/kg | CLint scaled [9]: 35 mL/min/kg | CLint scaled [10]: 102 mL/min/kg | IC50 [11]: > 30 µM | IC50 [12]: 16 µM | IC50 [13]: > 30 µM | Rat oral F [14]: >100% | Dog oral F [15]: 54% | Ames test result [16]: clean | Emax [17]: 77%
